Laboratory results taken from patent US10597388B2, “Pyridazinone herbicides” (FMC CORPORATION, priority 2014, dated 2020).

Assays:
Assay in all cases: Test D controlled growth environment herbicide test, pre- and postemergence
Type in all cases: in vivo
[1] = test system: lambsquarters (Chenopodium album)
Method in brief: (§1)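 Pre-emergence: seeds sown in silt loam soil were sprayed with compound in a non-phytotoxic solvent mix containing surfactant. Post-emergence: plants at 2 to 18 cm (1- to 4-leaf stage) in peat moss/vermiculite medium got the same formulation. Visual 0–100 rating versus controls after 14 to 21 d.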

[2] = test system: blackgrass (Alopecurus myosuroides)
Method in brief: as §1

[3] = test system: field poppy (Papaver rhoeas)
Method in brief: as §1

[4] = test system: mustard, wild (wild mustard, Sinapis arvensis)
Method in brief: as §1

[5] = test system: pigweed (Amaranthus retroflexus)
Method in brief: as §1

[6] = test system: wheat, winter (winter wheat, Triticum aestivum)
Method in brief: as §1

[7] = test system: windgrass (Apera spica-venti)
Method in brief: as §1

[8] = test system: foxtail, green (green foxtail, Setaria viridis)
Method in brief: as §1

[9] = test system: wheat, spring (spring wheat, Triticum aestivum)
Method in brief: as §1

[10] = test system: barley, winter (winter barley, Hordeum vulgare)
Method in brief: as §1

[11] = test system: chamomile (scentless chamomile, Matricaria inodora)
Method in brief: as §1

[12] = test system: oat, wild (wild oat, Avena fatua)
Method in brief: as §1

[13] = test system: chickweed (common chickweed, Stellaria media)
Method in brief: as §1

[14] = test system: bromegrass, downy (downy bromegrass, Bromus tectorum)
Method in brief: as §1

[15] = Postemergence, 31 g ai/ha, scale 0 to 100 (0 no effect, 100 complete control)
[16] = Postemergence, 125 g ai/ha, visual rating on scale 0 (no effect) to 100 (complete control), 14 to 21 d
[17] = Postemergence, 250 g ai/ha, scale 0 to 100 (0 no effect, 100 complete control)
[18] = Preemergence, 62 g ai/ha, scale 0 to 100 (0 no effect, 100 complete control)
[19] = Preemergence, 125 g ai/ha, scale 0 to 100 (0 no effect, 100 complete control)
[20] = Preemergence, 250 g ai/ha, scale 0 to 100, 0 no effect, 100 complete control
[21] = postemergence, 62 g ai/ha, scale 0 to 100, 0 no effect, 100 complete control

SMILES: Cc1nn(C)c(=O)c(-c2ccc(Br)c3ccccc23)c1O [Compound 75]
- Lambsquarters plant response rating [1, 15]: 100
- Plant response rating, Lambsquarters [1, 16]: 100
- Plant response rating, Lambsquarters [1, 17]: 100
- Plant response rating (scale of 0 to 100), Lambsquarters ([1]; Preemergence, 31 g ai/ha): 95
- Plant response rating, Lambsquarters [1, 18]: 95
- Plant response rating, Lambsquarters [1, 19]: 100
- Plant response rating, Lambsquarters [1, 20]: 100
- Plant response rating, Lambsquarters [1, 21]: 100
- Blackgrass plant response rating [2, 15]: 15
- Plant response rating, Blackgrass [2, 16]: 65
- Plant response rating, Blackgrass [2, 17]: 70
- Plant response rating (scale of 0 to 100), Blackgrass ([2]; Preemergence, 31 g ai/ha): 15
- Plant response rating, Blackgrass [2, 18]: 30
- Plant response rating, Blackgrass [2, 19]: 40
- Plant response rating, Blackgrass [2, 20]: 55
- Plant response rating, Blackgrass [2, 21]: 20
- Field Poppy plant response rating [3, 15]: 100
- Plant response rating, Field Poppy [3, 16]: 100
- Plant response rating, Field Poppy [3, 17]: 100
- Plant response rating (scale of 0 to 100), Field Poppy ([3]; Preemergence, 31 g ai/ha): 0
- Plant response rating, Field Poppy [3, 18]: 95
- Plant response rating, Field Poppy [3, 19]: 100
- Plant response rating, Field Poppy [3, 20]: 100
- Plant response rating, Field Poppy [3, 21]: 100
- Mustard, Wild plant response rating [4, 15]: 100
- Plant response rating, Mustard, Wild [4, 16]: 100
- Plant response rating, Mustard, Wild [4, 17]: 100
- Plant response rating (scale of 0 to 100), Mustard, Wild ([4]; Preemergence, 31 g ai/ha): 55
- Plant response rating, Mustard, Wild [4, 18]: 35
- Plant response rating, Mustard, Wild [4, 19]: 100
- Plant response rating, Mustard, Wild [4, 20]: 95
- Plant response rating, Mustard, Wild [4, 21]: 100
- Pigweed plant response rating [5, 15]: 100
- Plant response rating, Pigweed [5, 16]: 100
- Plant response rating, Pigweed [5, 17]: 100
- Plant response rating (scale of 0 to 100), Pigweed ([5]; Preemergence, 31 g ai/ha): 85
- Plant response rating, Pigweed [5, 18]: 100
- Plant response rating, Pigweed [5, 19]: 100
- Plant response rating, Pigweed [5, 20]: 100
- Plant response rating, Pigweed [5, 21]: 100
- Wheat, Winter plant response rating [6, 15]: 0
- Plant response rating, Wheat, Winter [6, 16]: 0
- Plant response rating, Wheat, Winter [6, 17]: 0
- Plant response rating (scale of 0 to 100), Wheat, Winter ([6]; Preemergence, 31 g ai/ha): 0
- Plant response rating, Wheat, Winter [6, 18]: 0
- Plant response rating, Wheat, Winter [6, 19]: 20
- Plant response rating, Wheat, Winter [6, 20]: 15
- Plant response rating, Wheat, Winter [6, 21]: 0
- Windgrass plant response rating [7, 15]: 10
- Plant response rating, Windgrass [7, 16]: 40
- Plant response rating, Windgrass [7, 17]: 65
- Plant response rating (scale of 0 to 100), Windgrass ([7]; Preemergence, 31 g ai/ha): 0
- Plant response rating, Windgrass [7, 18]: 15
- Plant response rating, Windgrass [7, 19]: 50
- Plant response rating, Windgrass [7, 20]: 85
- Plant response rating, Windgrass [7, 21]: 15
- Foxtail, Green plant response rating [8, 15]: 0
- Plant response rating, Foxtail, Green [8, 16]: 55
- Plant response rating, Foxtail, Green [8, 17]: 60
- Plant response rating (scale of 0 to 100), Foxtail, Green ([8]; Preemergence, 31 g ai/ha): 15
- Plant response rating, Foxtail, Green [8, 18]: 35
- Plant response rating, Foxtail, Green [8, 19]: 55
- Plant response rating, Foxtail, Green [8, 20]: 100
- Plant response rating, Foxtail, Green [8, 21]: 25
- Wheat, Spring plant response rating [9, 15]: 0
- Plant response rating, Wheat, Spring [9, 16]: 5
- Plant response rating, Wheat, Spring [9, 17]: 15
- Plant response rating (scale of 0 to 100), Wheat, Spring ([9]; Preemergence, 31 g ai/ha): 0
- Plant response rating, Wheat, Spring [9, 18]: 25
- Plant response rating, Wheat, Spring [9, 19]: 35
- Plant response rating, Wheat, Spring [9, 20]: 45
- Plant response rating, Wheat, Spring [9, 21]: 0
- Barley, Winter plant response rating [10, 15]: 0
- Plant response rating, Barley, Winter [10, 16]: 0
- Plant response rating, Barley, Winter [10, 17]: 5
- Plant response rating (scale of 0 to 100), Barley, Winter ([10]; Preemergence, 31 g ai/ha): 0
- Plant response rating, Barley, Winter [10, 18]: 0
- Plant response rating, Barley, Winter [10, 19]: 0
- Plant response rating, Barley, Winter [10, 20]: 0
- Plant response rating, Barley, Winter [10, 21]: 0
- Chamomile plant response rating [11, 15]: 80
- Plant response rating, Chamomile [11, 16]: 85
- Plant response rating, Chamomile [11, 17]: 100
- Plant response rating, Chamomile [11, 21]: 90
- Oat, Wild plant response rating [12, 15]: 50
- Plant response rating, Oat, Wild [12, 16]: 85
- Plant response rating, Oat, Wild [12, 17]: 80
- Plant response rating (scale of 0 to 100), Oat, Wild ([12]; Preemergence, 31 g ai/ha): 55
- Plant response rating, Oat, Wild [12, 18]: 65
- Plant response rating, Oat, Wild [12, 19]: 80
- Plant response rating, Oat, Wild [12, 20]: 85
- Plant response rating, Oat, Wild [12, 21]: 70
- Chickweed plant response rating [13, 15]: 100
- Plant response rating, Chickweed [13, 16]: 100
- Plant response rating, Chickweed [13, 17]: 100
- Plant response rating (scale of 0 to 100), Chickweed ([13]; Preemergence, 31 g ai/ha): 90
- Plant response rating, Chickweed [13, 18]: 100
- Plant response rating, Chickweed [13, 19]: 95
- Plant response rating, Chickweed [13, 20]: 100
- Plant response rating, Chickweed [13, 21]: 100
- Bromegrass, Downy plant response rating [14, 15]: 0
- Plant response rating, Bromegrass, Downy [14, 16]: 15
- Plant response rating, Bromegrass, Downy [14, 17]: 30
- Plant response rating (scale of 0 to 100), Bromegrass, Downy ([14]; Preemergence, 31 g ai/ha): 0
- Plant response rating, Bromegrass, Downy [14, 18]: 0
- Plant response rating, Bromegrass, Downy [14, 19]: 10
- Plant response rating, Bromegrass, Downy [14, 20]: 25
- Plant response rating, Bromegrass, Downy [14, 21]: 0
